Species on record: Rattus norvegicus
Assay: DrugMatrix - Regimen: Daily Repeat
Type: toxicity, organism-based, Sprague-Dawley
Set-up: regimen Daily Repeat, gender Male, age 6-8 weeks
Conditions: in vivo, po, route oral GAVAGE, vehicle .5 % CMC; for ABSOLUTE BASOPHIL / ABSOLUTE EOSINOPHIL / ABSOLUTE LYMPHOCYTE / ABSOLUTE MONOCYTE / ABSOLUTE SEGMENTED NEUTROPHIL / BASOPHIL / EOSINOPHIL / ERYTHROCYTE COUNT / HEMATOCRIT / HEMOGLOBIN / LEUKOCYTE COUNT / LYMPHOCYTE / MEAN CORPUSCULAR HEMOGLOBIN / MEAN CORPUSCULAR HEMOGLOBIN CONCENTRATION / MEAN CORPUSCULAR VOLUME / MONOCYTE / NEUTROPHIL / NUCLEATED RED BLOOD CELLS / PLATELET COUNT: tissue Blood; for ALANINE AMINOTRANSFERASE / ALBUMIN / ALKALINE PHOSPHATASE / ASPARTATE AMINOTRANSFERASE / BLOOD UREA NITROGEN / CARBON DIOXIDE / CHLORIDE / CHOLESTEROL / CREATINE PHOSPHOKINASE / CREATININE / GLUCOSE / LIPASE / PHOSPHORUS / POTASSIUM / SODIUM / TOTAL BILIRUBIN / TOTAL PROTEIN / URIC ACID: tissue Plasma
[1] = 0.3 mg/kg, 72 h, dose level High, time 3 day
[2] = 0.3 mg/kg, 120 h, dose level High, time 5 day
[3] = […], 72 h, dose 0.014 mg/Kg, dose level Low, time 3 day
[4] = […], 120 h, dose 0.014 mg/Kg, dose level Low, time 5 day

COc1cc2c(c3oc(=O)c4c(c13)CCC4=O)[C@@H]1C=CO[C@@H]1O2 [AFLATOXIN]
ABSOLUTE BASOPHIL [1]: 0 CELLS/uL
ABSOLUTE EOSINOPHIL [1]: 214.67 CELLS/uL
ABSOLUTE LYMPHOCYTE [1]: 14943 CELLS/uL
ABSOLUTE MONOCYTE [1]: 279 CELLS/uL
ABSOLUTE SEGMENTED NEUTROPHIL [1]: 1230 CELLS/uL
BASOPHIL [1]: 0%
EOSINOPHIL [1]: 1.33%
ERYTHROCYTE COUNT [1]: 5.62 x10E6/uL
HEMATOCRIT [1]: 35.63%
HEMOGLOBIN [1]: 13.67 G/DL
LEUKOCYTE COUNT [1]: 16.67 x10E3/uL
LYMPHOCYTE [1]: 89.67%
MEAN CORPUSCULAR HEMOGLOBIN [1]: 24.33 pg
MEAN CORPUSCULAR HEMOGLOBIN CONCENTRATION [1]: 38.33 G/DL
MEAN CORPUSCULAR VOLUME [1]: 63.4 fL
MONOCYTE [1]: 1.67%
NEUTROPHIL [1]: 7.33%
NUCLEATED RED BLOOD CELLS [1]: 0.33 /100WBC
PLATELET COUNT [1]: 1408.33 x10E3/uL
ALANINE AMINOTRANSFERASE [1]: 50 u/L
ALBUMIN [1]: 4.07 G/DL
ALKALINE PHOSPHATASE [1]: 424 u/L
ASPARTATE AMINOTRANSFERASE [1]: 109.33 u/L
BLOOD UREA NITROGEN [1]: 15.67 mg/dL
CARBON DIOXIDE [1]: 24.33 mmol/L
CHLORIDE [1]: 104 MEQ/L
CHOLESTEROL [1]: 59.67 mg/dL
CREATINE PHOSPHOKINASE [1]: 568.33 u/L
CREATININE [1]: 0.14 mg/dL
GLUCOSE [1]: 152.67 mg/dL
LIPASE [1]: 8.67 u/L
PHOSPHORUS [1]: 13 mg/dL
POTASSIUM [1]: 6.95 MEQ/L
SODIUM [1]: 144.7 MEQ/L
TOTAL BILIRUBIN [1]: 0.23 mg/dL
TOTAL PROTEIN [1]: 5.27 G/DL
URIC ACID [1]: 1.73 mg/dL
ABSOLUTE BASOPHIL [2]: 0 CELLS/uL
ABSOLUTE EOSINOPHIL [2]: 83.33 CELLS/uL
ABSOLUTE LYMPHOCYTE [2]: 13811.33 CELLS/uL
ABSOLUTE MONOCYTE [2]: 454 CELLS/uL
ABSOLUTE SEGMENTED NEUTROPHIL [2]: 784.67 CELLS/uL
BASOPHIL [2]: 0%
EOSINOPHIL [2]: 0.67%
ERYTHROCYTE COUNT [2]: 5.95 x10E6/uL
HEMATOCRIT [2]: 36.77%
HEMOGLOBIN [2]: 14.07 G/DL
LEUKOCYTE COUNT [2]: 15.13 x10E3/uL
LYMPHOCYTE [2]: 91%
MEAN CORPUSCULAR HEMOGLOBIN [2]: 23.63 pg
MEAN CORPUSCULAR HEMOGLOBIN CONCENTRATION [2]: 38.23 G/DL
MEAN CORPUSCULAR VOLUME [2]: 61.8 fL
MONOCYTE [2]: 3%
NEUTROPHIL [2]: 5.33%
NUCLEATED RED BLOOD CELLS [2]: 0 /100WBC
PLATELET COUNT [2]: 1425.67 x10E3/uL
ALANINE AMINOTRANSFERASE [2]: 64.67 u/L
ALBUMIN [2]: 4.1 G/DL
ALKALINE PHOSPHATASE [2]: 290.33 u/L
ASPARTATE AMINOTRANSFERASE [2]: 102.33 u/L
BLOOD UREA NITROGEN [2]: 17.33 mg/dL
CARBON DIOXIDE [2]: 27 mmol/L
CHLORIDE [2]: 105.5 MEQ/L
CHOLESTEROL [2]: 48 mg/dL
CREATINE PHOSPHOKINASE [2]: 345.67 u/L
CREATININE [2]: 0.19 mg/dL
GLUCOSE [2]: 158.67 mg/dL
LIPASE [2]: 9 u/L
PHOSPHORUS [2]: 12.27 mg/dL
POTASSIUM [2]: 5.92 MEQ/L
SODIUM [2]: 147.5 MEQ/L
TOTAL BILIRUBIN [2]: 0.13 mg/dL
TOTAL PROTEIN [2]: 5.53 G/DL
URIC ACID [2]: 1.93 mg/dL
ABSOLUTE BASOPHIL [3]: 0 CELLS/uL
ABSOLUTE EOSINOPHIL [3]: 94 CELLS/uL
ABSOLUTE LYMPHOCYTE [3]: 13843.33 CELLS/uL
ABSOLUTE MONOCYTE [3]: 261.67 CELLS/uL
ABSOLUTE SEGMENTED NEUTROPHIL [3]: 1234.33 CELLS/uL
BASOPHIL [3]: 0%
EOSINOPHIL [3]: 0.67%
ERYTHROCYTE COUNT [3]: 5.21 x10E6/uL
HEMATOCRIT [3]: 33%
HEMOGLOBIN [3]: 12.47 G/DL
LEUKOCYTE COUNT [3]: 15.43 x10E3/uL
LYMPHOCYTE [3]: 89.67%
MEAN CORPUSCULAR HEMOGLOBIN [3]: 23.93 pg
MEAN CORPUSCULAR HEMOGLOBIN CONCENTRATION [3]: 37.8 G/DL
MEAN CORPUSCULAR VOLUME [3]: 63.23 fL
MONOCYTE [3]: 1.67%
NEUTROPHIL [3]: 8%
NUCLEATED RED BLOOD CELLS [3]: 0 /100WBC
PLATELET COUNT [3]: 1257 x10E3/uL
ALANINE AMINOTRANSFERASE [3]: 47.67 u/L
ALBUMIN [3]: 4.1 G/DL
ALKALINE PHOSPHATASE [3]: 302.67 u/L
ASPARTATE AMINOTRANSFERASE [3]: 99 u/L
BLOOD UREA NITROGEN [3]: 16.33 mg/dL
CARBON DIOXIDE [3]: 25.33 mmol/L
CHLORIDE [3]: 103.33 MEQ/L
CHOLESTEROL [3]: 64.67 mg/dL
CREATINE PHOSPHOKINASE [3]: 408 u/L
CREATININE [3]: 0.21 mg/dL
GLUCOSE [3]: 142.33 mg/dL
LIPASE [3]: 9 u/L
PHOSPHORUS [3]: 12.17 mg/dL
POTASSIUM [3]: 6.42 MEQ/L
SODIUM [3]: 143.57 MEQ/L
TOTAL BILIRUBIN [3]: 0.2 mg/dL
TOTAL PROTEIN [3]: 5.47 G/DL
URIC ACID [3]: 1.47 mg/dL
ABSOLUTE BASOPHIL [4]: 0 CELLS/uL
ABSOLUTE EOSINOPHIL [4]: 37.67 CELLS/uL
ABSOLUTE LYMPHOCYTE [4]: 14048 CELLS/uL
ABSOLUTE MONOCYTE [4]: 191.67 CELLS/uL
ABSOLUTE SEGMENTED NEUTROPHIL [4]: 1122.67 CELLS/uL
BASOPHIL [4]: 0%
EOSINOPHIL [4]: 0.33%
ERYTHROCYTE COUNT [4]: 5.76 x10E6/uL
HEMATOCRIT [4]: 35.83%
HEMOGLOBIN [4]: 13.37 G/DL
LEUKOCYTE COUNT [4]: 15.4 x10E3/uL
LYMPHOCYTE [4]: 91%
MEAN CORPUSCULAR HEMOGLOBIN [4]: 23.2 pg
MEAN CORPUSCULAR HEMOGLOBIN CONCENTRATION [4]: 37.3 G/DL
MEAN CORPUSCULAR VOLUME [4]: 62.2 fL
MONOCYTE [4]: 1.33%
NEUTROPHIL [4]: 7.33%
NUCLEATED RED BLOOD CELLS [4]: 1.33 /100WBC
PLATELET COUNT [4]: 1353 x10E3/uL
ALANINE AMINOTRANSFERASE [4]: 48.33 u/L
ALBUMIN [4]: 4.3 G/DL
ALKALINE PHOSPHATASE [4]: 352.33 u/L
ASPARTATE AMINOTRANSFERASE [4]: 90.33 u/L
BLOOD UREA NITROGEN [4]: 19.67 mg/dL
CARBON DIOXIDE [4]: 26.33 mmol/L
CHLORIDE [4]: 105.67 MEQ/L
CHOLESTEROL [4]: 63.33 mg/dL
CREATINE PHOSPHOKINASE [4]: 486.67 u/L
CREATININE [4]: 0.21 mg/dL
GLUCOSE [4]: 164.67 mg/dL
LIPASE [4]: 8.33 u/L
PHOSPHORUS [4]: 12.6 mg/dL
POTASSIUM [4]: 6.34 MEQ/L
SODIUM [4]: 146.9 MEQ/L
TOTAL BILIRUBIN [4]: 0.2 mg/dL
TOTAL PROTEIN [4]: 6.03 G/DL
URIC ACID [4]: 1.93 mg/dL

— ChEMBL document CHEMBL3885881, “DrugMatrix”
